Tests used:
Format in all cases: functional
[1] = system: Mycobacterium tuberculosis; test: Antitubercular activity against rifampin-resistant Mycobacterium tuberculosis H37Rv by microplate alamar blue assay
[2] = system: Mycobacterium tuberculosis; test: Antitubercular activity against isoniazid-resistant Mycobacterium tuberculosis H37Rv by microplate alamar blue assay
[3] = system: Mycobacterium tuberculosis; test: Antitubercular activity against Mycobacterium tuberculosis H37Rv harboring LuxABCDE assessed as reduction in luminescence supplemented with fresh medium containing compound on day 2 and 5 by luminescence assay; conditions: 120 h, time 5 day
[4] = system: Mycobacterium tuberculosis; test: Synergistic antitubercular activity against Mycobacterium tuberculosis bedaquiline-resistant mutant 7 assessed as bedaquiline MIC=>90 at 0.8 ug/ml by microplate alamar blue assay (Rvb >2 uM); conditions: dose 0.8 µg/ml
[5] = system: Mycobacterium tuberculosis; test: Synergistic antitubercular activity against Mycobacterium tuberculosis bedaquiline-resistant mutant H15 assessed as bedaquiline MIC=>90 at 0.8 ug/ml by microplate alamar blue assay (Rvb >2 uM); conditions: dose 0.8 µg/ml
[6] = system: Mycobacterium tuberculosis; test: Synergistic antitubercular activity against Mycobacterium tuberculosis bedaquiline-resistant mutant H15 assessed as bedaquiline growth inhibition at 0.8 ug/ml by microplate alamar blue assay (reference value: 75%); conditions: dose 0.8 µg/ml
[7] = system: Mycobacterium tuberculosis; test: Synergistic antitubercular activity against Mycobacterium tuberculosis rifampin-resistant mutant assessed as rifampin MIC=>90 at 0.8 ug/ml by microplate alamar blue assay (Rvb >1 uM); conditions: dose 0.8 µg/ml
[8] = system: Mycobacterium tuberculosis; test: Synergistic antitubercular activity against Mycobacterium tuberculosis rifampin-resistant mutant assessed as rifampin growth inhibition at 0.8 ug/ml by microplate alamar blue assay (reference value: 46%); conditions: dose 0.8 µg/ml
[9] = system: Mycobacterium tuberculosis; test: Synergistic antitubercular activity against Mycobacterium tuberculosis isoniazid-resistant mutant assessed as isoniazid MIC=>90 at 0.8 ug/ml by microplate alamar blue assay (Rvb >8 uM); conditions: dose 0.8 µg/ml
[10] = system: Mycobacterium tuberculosis; test: Synergistic antitubercular activity against Mycobacterium tuberculosis isoniazid-resistant mutant assessed as isoniazid growth inhibition at 0.8 ug/ml by microplate alamar blue assay (reference value: 0%); conditions: dose 0.8 µg/ml
[11] = system: Mycobacterium tuberculosis; test: Synergistic antitubercular activity against Mycobacterium tuberculosis bedaquiline-resistant mutant 7 assessed as bedaquiline MIC=>90 at 0.4 ug/ml by microplate alamar blue assay (reference value: 0.9 uM); conditions: dose 0.4 µg/ml
[12] = system: Mycobacterium tuberculosis; test: Synergistic antitubercular activity against Mycobacterium tuberculosis bedaquiline-resistant mutant H15 assessed as bedaquiline MIC=>90 at 0.4 ug/ml by microplate alamar blue assay (Rvb >2 uM); conditions: dose 0.4 µg/ml
[13] = system: Mycobacterium tuberculosis; test: Synergistic antitubercular activity against Mycobacterium tuberculosis bedaquiline-resistant mutant H15 assessed as bedaquiline growth inhibition at 0.4 ug/ml by microplate alamar blue assay (reference value: 75%); conditions: dose 0.4 µg/ml
[14] = system: Mycobacterium tuberculosis; test: Synergistic antitubercular activity against Mycobacterium tuberculosis rifampin-resistant mutant assessed as rifampin MIC=>90 at 0.4 ug/ml by microplate alamar blue assay (Rvb >1 uM); conditions: dose 0.4 µg/ml
[15] = system: Mycobacterium tuberculosis; test: Synergistic antitubercular activity against Mycobacterium tuberculosis rifampin-resistant mutant assessed as rifampin growth inhibition at 0.4 ug/ml by microplate alamar blue assay (reference value: 46%); conditions: dose 0.4 µg/ml
[16] = system: Mycobacterium tuberculosis; test: Synergistic antitubercular activity against Mycobacterium tuberculosis isoniazid-resistant mutant assessed as isoniazid MIC=>90 at 0.4 ug/ml by microplate alamar blue assay (Rvb >8 uM); conditions: dose 0.4 µg/ml
[17] = system: Mycobacterium tuberculosis; test: Synergistic antitubercular activity against Mycobacterium tuberculosis isoniazid-resistant mutant assessed as isoniazid growth inhibition at 0.4 ug/ml by microplate alamar blue assay (reference value: 0%); conditions: dose 0.4 µg/ml

## CO[C@H]1/C=C/O[C@@]2(C)Oc3c(C)c(O)c4c(O)c(c(/C=N/N5CCN(C)CC5)c(O)c4c3C2=O)NC(=O)/C(C)=C\C=C\[C@H](C)[C@H](O)[C@@H](C)[C@@H](O)[C@@H](C)[C@H](OC(C)=O)[C@@H]1C [RIFAMPIN]
[1]
  MIC90: > 1 µM
[2]
  MIC90: 0.03 µM

## COc1nc2ccc(Br)cc2cc1[C@@H](c1ccccc1)[C@@](O)(CCN(C)C)c1cccc2ccccc12 [BEDAQUILINE]
[3]
  EC90: 360 nM

## NNC(=O)c1ccncc1 [ISONIAZID]
[1]
  MIC90: 0.32 µM
[2]
  MIC90: > 8 µM

## CC(=O)NC[C@H]1CN(c2ccc(N3CCOCC3)c(F)c2)C(=O)O1 [LINEZOLID]
[1]
  MIC90: 1.14 µM
[2]
  MIC90: 0.94 µM

## CC(C)N(C(=O)CCNCCC(c1ccccc1)c1ccccc1)C(C)C
[1]
  MIC90: 3.32 µg/mL
[2]
  MIC90: 3.01 µg/mL
[3]
  EC90: 9.93 µg/mL
[4]
  MIC: 0.53 µM
[5]
  MIC: >2 µM
[6]
  growth inhibition (GI): 76%
[7]
  MIC: >1 µM
[8]
  growth inhibition (GI): 60%
[9]
  MIC: >8 µM
[10]
  growth inhibition (GI): 17%

## CC(C)N(C(=O)CCNCCCC1CCCC1)C(C)C
[1]
  MIC90: 1.78 µg/mL
[2]
  MIC90: 1.87 µg/mL
[3]
  EC90: 9.67 µg/mL
[11]
  MIC: 0.91 µM
[12]
  MIC: >2 µM
[13]
  growth inhibition (GI): 72%
[14]
  MIC: >1 µM
[15]
  growth inhibition (GI): 47%
[16]
  MIC: >8 µM
[17]
  growth inhibition (GI): 0%
